In US20100280085A1, “CHEMICAL COMPOUNDS” (SYNGENTA CROP PROTECTION, INC., priority 2006, published 2010):
Read-outs that look alike come from different tables or passages of the source.

How the values were obtained:
[1] = tested on: Myzus persicae (Green peach aphid); experiment: Myzus persicae test, roots of infested pea seedlings placed in test solution; assay type: in vivo; conditions: 144 h, read-out: control of Myzus persicae
Protocol: (§1) This Example illustrates the pesticidal/insecticidal properties of compounds of formula (I). The compounds numbers are those of the characterising data tables. Test against were performed as follows:
Myzus persicae (Green peach aphid): Roots of pea seedlings, infested with an aphid population of mixed ages, were placed directly in the test solutions of 24 ppm. 6 days after introduction, samples were checked for mortality.

[2] = tested on: Myzus persicae (Green peach aphid); experiment: Myzus persicae sunflower leaf disc spray test; assay type: in vivo; conditions: foliar, 144 h, read-out: control of Myzus persicae
Protocol: as §1
Heliothis virescens (Tobacco budworm): Eggs (0-24 h old) were placed in 24-well microtiter plate on artificial diet and treated with test solutions at an application rate of 200 ppm by pipetting. After an incubation period of 4 days, samples were checked for egg mortality, larval mortality, and growth regulation. The following compounds gave at least 80% control of Heliothis virescens: 1.004, 1.005, 1.012, 1.016, 4.001, 31.016, 31.018. Myzus persicae (Green peach aphid): Sunflower leaf discs were placed on agar in a 24-well microtiter plate and sprayed with test solutions at an application rate of 200 ppm. After drying, the leaf discs were infested with an aphid population of mixed ages. After an incubation period of 6 DAT, samples were checked for mortality.

[3] = roots of pea seedlings in test solutions of 24 ppm, mixed ages, mortality after 6 days
[4] = sunflower leaf discs sprayed at 200 ppm, mixed ages, mortality at 6 DAT

SMILES | pest or weed control at 24 ppm [1, 3] [%] | pest or weed control at 200 ppm [2, 4] [%] | also measured
COc1ccc2c(c1)CCC2NC1=NCCO1 (stereo not drawn) |  |  | melting point: 115 to 118 °C
COc1cc2c(cc1OC)C(NC1=NCCO1)CC2 (stereo not drawn) |  |  | melting point: 109 to 113 °C
c1ccc(C2CC(NC3=NCCO3)c3ccccc32)cc1 (stereo not drawn) |  |  | melting point: > 120 °C (dec.)
O=C(NCCCl)NC1CCc2ccccc21 (racemic) [Compound 31.017] |  |  | pest or weed control at 24 ppm [1]: ≥ 80%; pest or weed control at 200 ppm [2]: ≥ 80%
OC1Cc2ccccc2C1NC1=NCCO1 (stereo not drawn) [1.013] |  |  | melting point: 139 to 141 °C
OC1Cc2ccccc2C1NC1=NCCO1 (stereo not drawn) [1.014] |  |  | melting point: 140 to 142 °C
CC1Cc2ccccc2C1NC1=NCCO1 (stereo not drawn) [Compound 1.001] | ≥ 80 |  | 
CC1CC(NC2=NCCO2)c2ccccc21 (stereo not drawn) [Compound 1.002] | ≥ 80 | ≥ 80 | 
Cc1cccc2c1CCC2NC1=NCCO1 (stereo not drawn) [Compound 1.004] | ≥ 80 | ≥ 80 | 
Fc1ccc2c(c1)CCC2NC1=NCCO1 (stereo not drawn) [Compound 1.005] |  | ≥ 80 | 
Brc1ccc2c(c1)CCC2NC1=NCCO1 (stereo not drawn) [Compound 1.006] |  | ≥ 80 | 
Clc1ccc2c(c1)CCC2NC1=NCCO1 (stereo not drawn) [Compound 1.007] |  | ≥ 80 | 
COc1ccc2c(c1)C(NC1=NCCO1)CC2 (stereo not drawn) [Compound 1.009] |  | ≥ 80 | 
Cc1ccc2c(c1)CCC2NC1=NCCO1 (stereo not drawn) [Compound 1.010] | ≥ 80 | ≥ 80 | 
Cc1ccc2c(c1)C(NC1=NCCO1)CC2 (stereo not drawn) [Compound 1.012, (4,5-Dihydro-oxazol-2-yl)-(6-methyl-indan-1-yl)-amine] | ≥ 80 | ≥ 80 | 
CC1Cc2ccccc2C1NC1=NCCO1 (stereo not drawn) [Compound 1.015] |  | ≥ 80 | 
Fc1cccc2c1CCC2NC1=NCCO1 (stereo not drawn) [Compound 1.016] | ≥ 80 | ≥ 80 | 
c1ccc2c(c1)CCC2NC1=NCCO1 (stereo not drawn) [Compound 1.017] | ≥ 80 | ≥ 80 | 
CC1Cc2ccccc2C1NC(=O)NCCCl (stereo not drawn) [Compound 31.001] |  |  | pest or weed control at 24 ppm [1]: ≥ 80%; pest or weed control at 200 ppm [2]: ≥ 80%
CC1CC(NC(=O)NCCCl)c2ccccc21 (stereo not drawn) [Compound 31.002] |  |  | pest or weed control at 24 ppm [1]: ≥ 80%; pest or weed control at 200 ppm [2]: ≥ 80%
O=C(NCCCl)NC1CCc2c(F)cccc21 (stereo not drawn) [Compound 31.016] |  |  | pest or weed control at 24 ppm [1]: ≥ 80%; pest or weed control at 200 ppm [2]: ≥ 80%
O=C(NCCCl)NC1CCc2ccccc21 (stereo not drawn) [Compound 31.018] |  |  | pest or weed control at 24 ppm [1]: ≥ 80%; pest or weed control at 200 ppm [2]: ≥ 80%
